Columns and labels:
[1] = test system: Hairless SKH mice; experiment: Skin atrophy protocol: dermis-epidermis thickness after topical corticosteroid with or without HA fragments; format: in vivo
From the text: Hairless SKH mice received twice daily for 5 days a topical treatment on the back with a steroid (0.05% clobetasol propionate or 0.1% desonide) with or without HA fragments (with a molecular weight comprised between 20 and 500 kDa, and obtained by the method including the treatment steps with ultrasound and filtering as described above). These fragments will be designated in the following examples by HAF. Dermal and epidermal atrophy and the concentration of skin hyaluronate were respectively determined by measuring the dermis-epidermis thickness in optical microscopy and by ELISA.
The epidermal and cutaneous (distance between the granular layer and the sweating glands) thicknesses were measured by an ocular micrometer. Ten measurements were made per mouse. The prevention index is the ratio between the control treated with clobetasol propionate (PC) alone and the PC +HAF composition.
The epidermal thickness was measured with an ocular micrometer after treatment with different desonide concentrations. Ten measurements were made per mouse. The prevention index is the ratio, at a determined corticosteroid concentration, between the control treated by the corticosteroid alone and by the corticosteroid composition+HAF.
The epidermal thickness was measured with an ocular micrometer after treatment with different corticosteroids. Ten measurements were made per mouse. The prevention index is the ratio between the control treated by the corticosteroid alone and the corresponding composition comprising the HAFs.
The non-treated hyaluronic acid, the fragments obtained by action of hyaluronidase, as well as the HAFs were compared for their preventive effects. The epidermal thickness was measured with an ocular micrometer. Ten measurements were made per mouse. The prevention index is the ratio between the control treated with the corticosteroid alone and with each corticosteroid composition+HAF.

[2] = test system: C57B1/6 mice; experiment: Inflammation induced by TPA in the ear of mice: epidermis and dermis thickness, dermal cellularity; format: in vivo; conditions: 0.005% TPA on ears, PC 0.05%, HAF 1%, 4 days
Method: (§1) Skin inflammation was induced by topical application of 0.005% TPA (12-o-tetradecanoylphorbol-13-acetate) in acetone, on the ears of C57B1/6 mice; the control animals received the same volume of acetone. Clobetasol propionate (0.05%) and the HAFs (1%) were dissolved in 100 μL of carrier, and were applied together with TPA for 4 days; the control animals received the same volume of carrier. The inflammation was determined by measuring the thickness of the ears with a clip and the dermis-epidermis thickness in optical microscopy and by assaying myeloperoxidase activity. The animals were sacrificed 24 hrs after the last application. 6 mm biopsies were sampled, frozen in liquid nitrogen and then stored at −70° C. until the day of the analysis. The remainder of the tissue was set with formol and analyzed by immunohistology.
The epidermal inflammation induced by the application of Phorbol TPA ester was measured, after application of TPA, and then after treatment with clobetasol propionate, and after treatment with the composition comprising clobetasol propionate and HAFs. Ten measurements were made per mouse. The anti-inflammation index is the ratio between the control treated with TPA, and with the composition TPA+PC or TPA+PC+HAF.
The dermal inflammation induced by applying Phorbol TPA ester was measured, after application of TPA, and then after treatment with clobetasol propionate and after treatment with the composition comprising clobetasol propionate and HAFs. Ten measurements were made per mouse, the results are grouped in the Table 6 below. The anti-inflammation index in the ratio between the control treated with TPA, and with the association TPA+PC or TPA+PC+HAF.
Dermal cellularity induced by applying Phorbol TPA ester was measured, after application of TPA, and then after treatment with clobetasol propionate, and after treatment with the composition comprising clobetasol propionate and HAFs. Ten measurements were made per mouse. The anti-inflammation index is the ratio between the control treated with TPA, and with the association TPA+PC or TPA+PC+HAF.

[3] = test system: myeloperoxidase; experiment: Myeloperoxidase activity in supernatant of homogenates of TPA-treated ear biopsies; format: in vivo, mice; conditions: 0.005% TPA on ears, PC 0.05%, HAF 1%, 4 days
Method: as §1
The myeloperoxidase activity was determined in the supernatant of the homogenates of the ear biopsies. […] The enzymatic activity of myeloperoxidase was determined according to the method of Bradley et al., modified for using the photometric plate reader. […] The optical density was measured at 450 nm. […] The expression of CD44, CD44v3 and pro-HB-EGF was analyzed by immunohistochemistry and by Western blotting according to methods already described (PLoS Med 3 (12): e493, 2006). […]

[4] = test system: hairless SKH1 mice; conditions: JEADV 19: 124, 2005; cited from earlier work
[5] = Table 3: corticosteroid 0.05%, with or without HAF

## C[C@H]1C[C@H]2[C@@H]3CCC4=CC(=O)C=C[C@]4(C)[C@@]3(F)[C@@H](O)C[C@]2(C)[C@@]1(O)C(=O)CO [Betamethasone]
[1]; [5]
  Epidermal thickness % of non-treated control: 53 % of non-treated control

## CC1(C)O[C@@H]2C[C@H]3[C@@H]4CCC5=CC(=O)C=C[C@]5(C)[C@H]4[C@@H](O)C[C@]3(C)[C@]2(C(=O)CO)O1 [Desonide, desonide]
[1]; Desonide 0.025%, HAF 0 or 1%
  Epidermal thickness % of non-treated control: 72 % of non-treated control
[1]; Desonide 0.05%, HAF 0 or 1%
  Epidermal thickness % of non-treated control: 62 % of non-treated control
[1]; Desonide 0.075%, HAF 0
  Epidermal thickness % of non-treated control: 55 % of non-treated control
[1]; Desonide 0.1%, HAF 0 or 1%
  Epidermal thickness % of non-treated control: 46 % of non-treated control
[1]; [5]
  Epidermal thickness % of non-treated control: 62 % of non-treated control
[1]; Table 4: Desonide 0.1% alone or with HA form
  Epidermal thickness % of non-treated control: 46 % of non-treated control

## CCC(=O)O[C@]1(C(=O)CCl)[C@@H](C)C[C@H]2[C@@H]3CCC4=CC(=O)C=C[C@]4(C)[C@@]3(F)[C@@H](O)C[C@@]21C [PC, clobetasol propionate]
[1]; PC 0.05%, HAF 1% where present, distance between granular layer and sweating glands
  Cutaneous thickness % of non-treated control: 56 % of non-treated control
[1]; PC 0.05%, HAF 1% where present, topical on the back twice daily for 5 days
  Epidermal thickness % of non-treated control: 33 % of non-treated control
[1]; [5]
  Epidermal thickness % of non-treated control: 28 % of non-treated control
[1]; Table 4: 0.05% Clobetasol alone or with HA form
  Epidermal thickness % of non-treated control: 28 % of non-treated control

## CCCCCCCCCCCCCC(=O)O[C@@H]1[C@@H](C)[C@@]2(O)[C@@H](C=C(CO)C[C@]3(O)C(=O)C(C)=C[C@@H]23)[C@@H]2C(C)(C)[C@]12OC(C)=O [TPA, 12-o-tetradecanoylphorbol-13-acetate]
[2]
  Dermal cellularity % of control: 789 % of control
  Dermis inflammation % of non-treated control: 226 % of non-treated control
  Epidermis inflammation % of control: 438 % of control
[3]
  myeloperoxidase % of control: 3273 % of control

## CC1=C(/C=C/C(C)=C/C=C/C(C)=C/C=O)C(C)(C)CCC1 [retinaldehyde]
[4]
  Prevention of epidermal atrophy induced by clobetasol propionate: prevents epidermal atrophy induced by a corticosteroid, clobetasol propionate

— patent US20130059814A1, “ANTI-INFLAMMATORY DERMATOLOGICAL COMPOSITION COMPRISING CORTICOSTEROIDS AND HYALURONATE FRAGMENTS, AND USES THEREOF” (priority 2007, published 2013)
